Residues, ends and D or L forms follow the SMILES beside them. No end group written: not given here. K(CB-TE2A) = lysine carrying the CB-TE2A chelator (for 64Cu); Cy7 = near-infrared fluorescent dye for NIRF imaging; PEGn = polyethylene glycol (n units) spacer
Experiments:
[1] = Solubility of the peptide; assay type: physicochemical
MCF-7 cells [2] = assay: Cellular toxicity of LDLLDL peptide by microscopy; assay type: cell-based, human; conditions: 0.1-1000 μM/mL, up to highest concentration tested
Excerpt: (§1) A FPR-targeted peptide and its optical imaging probe were designed and synthesized: The inventors synthesized an FPR-targeted peptide agent Leu-Asp-Leu-Leu-Asp-Leu (LDLLDL: SEQ ID NO:1), which is an antagonist peptide for FPR1 receptor. The inventors have also developed an NIR optical imaging probe to evaluate the targeting capability. Specifically, the base peptide ligand was synthesized by the solid-phase method. After the peptide sequence was assembled on resin, the ivDDE protecting group was removed from the w-amino group of the lysine by treatment with hydrazine. The inventors tested varying concentrations (0.1-1000 μM/mL) of LDLLDL (SEQ ID NO:1) peptide in all four breast cancer cell types (BT474, BT549, MDA-MB-231 and MCF-7) to assess cellular toxicity.

MDA-MB-231 cells [3] = assay: Cellular toxicity of LDLLDL peptide by microscopy; assay type: cell-based, human; conditions: 0.1-1000 μM/mL, up to highest concentration tested
Excerpt: as §1

BT474 cells [4] = assay: Cellular toxicity of LDLLDL peptide by microscopy; assay type: cell-based, human; conditions: 0.1-1000 μM/mL, up to highest concentration tested
Excerpt: as §1

BT549 cells = assay: Cellular toxicity of LDLLDL peptide by microscopy; assay type: cell-based, human; conditions: 0.1-1000 μM/mL, up to highest concentration tested
Excerpt: as §1

tumor-expressing ANXA1 = assay: In vitro target binding specificity in breast cancer cell models; assay type: cell-based; conditions: human breast cancer cell models
Experimental: In vitro target specificity binding is evaluated in two steps: Step 1: Characterize the ANXA1/FPR1 expression baseline by examining expression levels of FPR1 and ANXA1 in five human breast cancer cell lines, MDA-MB-231, HCC1500, BT549, MCF-7, BT474, and HEMC. Obtaining protein expression by performing IHC staining using the anti-ANXA1 and anti-FPR1 antibody. The cell lines with positive staining are identified. Further, the […] of ANXA1 and FPR1 are evaluated by western blotting and qRT-PCR. The correlation between FPR1 and ANXA1 are validated, and the cells with highest FPR1 and ANXA1 expression are selected for further in vivo study. The results establish the baseline of expression of ANXA1 and FPR1 in the tested breast cancer cell lines.
Step 2: Characterization of the binding specificity of the LDLLDL-^64Cu ([SEQ ID NO:1]-^64Cu) is tested on the cell lines described above. The cells are cultured in two groups of Petri dishes. […] The suspended cells are measured for radioactivity using a gamma-counter. Disintegrations per minute per cell are calculated and reported as the peptide uptake for each cell line. […] The cell-associated radioactivity is measured, and the binding affinity is determined by the Grafit software (Erithacus, Inc). […]

[5] = test system: xenograft breast cancer model with ANXA1 overexpression; assay: PET uptake in breast cancer xenograft model with ANXA1 overexpression; assay type: in vivo, mice
Excerpt: (§2) Without being bound to any particular theory, the inventors believe that ANXA1 is associated with tumorigenesis and progression, and the synthesized peptide imaging probe can be used as a surrogate for monitoring the tumor expression with ANXAL. To characterize target specificity, the inventors developed the breast cancer xenograft model with ANXA1 overexpression as well as an ANXA1-knockdown model using a shRNA lentiviral vector technique. […] The inventors assess the pharmacokinetic profile and tumor specific targeting potency of the new imaging probe, and its effectiveness in evaluation of tumorigenesis and progression of aggressive breast cancer. See FIG. 8 for experimental design.
Breast cancer xenograft model: In vitro studies described above identified the expression of ANXA1/FPR1 for all tested cells. […] Body weight and tumor volume is measured weekly. […]
Blood clearance and biodistribution: i) Blood clearance: After anesthesia (isoflurane 2-3%), 2 groups of 5 mice each are injected with radiolabeled LDLLDL-^64Cu ([SEQ ID NO:1]-^64Cu) (˜5 μCi) via tail vein. Retro-orbital blood samples (25 μL) are collected at various time points such as 5, 15, 30, 60, 120, 240 min and 24 h after injection and radioactivity of all samples are counted in a gamma counter (Perkin-Elmer). […] At 1 h, 2 h, 4 h, 24 h after injection, mice are scanned by small-animal PET followed by tissue radioactivity assay. […]

[6] = test system: ANXA1-knockdown breast cancer xenograft; assay: PET uptake in ANXA1-knockdown xenograft model; assay type: in vivo, mice
Excerpt: as §2, with “design. […]” for “design.”
Evaluation of tumor uptake in ANXA1 knockdown xenograft model: The inventors evaluate the effects of ANXA1 in regulating tumorigenesis and progression using the ANXA1-KD/control breast cancer xenograft model. […] Tumor growth and/or progression of the disease is monitored up to 8 weeks after cell inoculation. […] On completion of PET/CT at 24 h after injection, a tissue radioactivity assay is performed, and tissue radioactivity is calculated and expressed as decay-corrected percentage injected dose per gram of tissue (% ID/g). The tumor radioactivity and size are compared between ANXA1-KD tumor and ANXA1-SCR tumor. […]

[7] = test system: macrophage cell line RAW264.7; assay: Cellular uptake of FPR peptide by near infrared fluorescence imaging; assay type: cell-based; conditions: peptide 5 uMol/uL, 4 hrs
Experimental: (§3) To study the ability of the FPR peptide to internalize and fluorescently labeled cancer and macrophage cells, various breast cancer cell lines were treated with the peptide (5 uMol/uL) for 4 hrs. […] Fluorescence uptake was not observed in the normal human mammary epithelial cells (HEMC-control), as expected, since there is no expression of FPR receptor for HEMC.

human TNBC cells = assay: Target specificity of the FPR peptide by near infrared fluorescence imaging; assay type: cell-based; conditions: 3 hrs, 5 and 10 μM/mL
Experimental: (§4) LDLLDL-Cy7 ([SEQ ID NO:1]-Cy7) was used to treat five cancer cell lineages (MDA-MB-231, BT549, HCC1500, BT474, and MCF-7) and normal human mammary epithelial cell (HEMC) for 3 hrs at the concentrations of 5 and 10 μM/mL. After washing 3 times with cold PBS, all cells were imaged using near infrared fluorescence imaging and target specificity of the FPR peptide was evaluated.

[8] = test system: E0771 breast cancer tumor xenograph; assay: In vivo fluorescence imaging in tumor xenograph mice; set-up: species or system C57BL/6 mice; conditions: 30 ul of peptide (2 nMoles), within 6 hr, rear bilateral flank tumors
Experimental: (§5) FIG. 9 depicts one of 10 mice experiments in accordance with various embodiments. Ten mice (C57BL/6 mice) were implanted with breast cancer cells (E0771) to develop breast cancer tumor xenograph model. The tumors were allowed to grow for 4 weeks before the mice were injected with 30 ul of peptide (2 nMoles). The animals were imaged using mouse fluorescence imaging after 1, 2, 3, 4, 6 hr.

[9] = test system: normal human mammary epithelial cell (HEMC); assay: Cellular uptake of FPR peptide by near infrared fluorescence imaging; assay type: cell-based
Experimental: as §3, §4

[10] = test system: 4T1 breast cancer tumor xenograph; assay: In vivo fluorescence imaging in tumor xenograph mice; set-up: species or system Balb/c mice; conditions: 30 ul of peptide (2 nMoles), within 6 hr, mammary gland tumors
Experimental: as §5, with “10” for “9”, “(Balb/c” for “(C57BL/6”, “(4T1)” for “(E0771)”

MCF-7 cells [11] = assay: Cellular uptake of FPR peptide by near infrared fluorescence imaging; assay type: cell-based, human; conditions: 3 hrs, 5 and 10 μM/mL, FIG. 4
Experimental: as §3, §4

HCC1500 cells = assay: as above; assay type: cell-based, human
Experimental: as §3, §4

MDA-MB-231 cells [12] = assay: as above; assay type: cell-based, human; conditions: 3 hrs, 5 and 10 μM/mL, FIG. 4
Experimental: as §3, §4

BT474 cells [13] = assay: as above; assay type: cell-based, human
Experimental: as §3, §4

[14] = test system: MDA-MB-231 breast cancer tumor xenograph; assay: In vivo fluorescence imaging and organ biodistribution in tumor xenograph mice
Experimental: FIG. 5 depicts in accordance with various embodiments of the invention, in vivo fluorescent image of xenograft mice after 6 hours of tail vein injection. Mice were injected with fluorescent dye (Cy7) only (left panel), and peptide-Cy7 (right panel).
FIG. 6 depicts in accordance with various embodiments of the invention, the biodistribution in tumor-bearing mice after 7 hours of tail vein injection. Mice were injected with fluorescent dye only (left panel), and peptide LDLLDL-Cy7 (right panel)([SEQ ID NO:1]-Cy7).
Ten mice were implanted with breast cancer cells (MDA-MB-231) to develop breast cancer tumor xenograph models. The tumors were allowed to grow for 4 weeks before the mice were injected with 30 ul of peptide (2 nMoles). The animals were imaged using mouse fluorescence imaging after 1, 2, 3, 4, and 6 hours. FIG. 5 show the results of one of those mice experiments. […] After 7 hours the animals were sacrificed and organs extracted and imaged.

[15] = organs extracted after 7 hours, FIG. 6

CC(C)C[C@H](NC(=O)[C@H](CC(=O)O)NC(=O)[C@H](CC(C)C)NC(=O)[C@H](CC(C)C)NC(=O)[C@H](CC(=O)O)NC(=O)[C@@H](N)CC(C)C)C(=O)O [LDLLDL, Leu-Asp-Leu-Leu-Asp-Leu] (H-LDLLDL-OH; N-terminus and C-terminus assumed)
solubility [1]: superior | cellular toxicity (cell death by microscopy) (MCF-7 cells [2]): Apparent cell death could not be observed | cellular toxicity (cell death by microscopy) (MDA-MB-231 cells [3]): Apparent cell death could not be observed | cellular toxicity (cell death by microscopy) (BT474 cells [4]): Apparent cell death could not be observed | cellular toxicity (cell death by microscopy) (BT549 cells): Apparent cell death could not be observed

LDLLDL-^64Cu (LDLLDL-{PEGn-K(CB-TE2A)}; also: 64Cu chelated by CB-TE2A)
targeting specificity and sensitivity (tumor-expressing ANXA1): excellent specificity and sensitivity | uptake in PET image studies [5]: significantly high uptake | uptake of the peptide [6]: reduced uptake

LDLLDL-Cy7
uptake of the peptide [7]: substantial uptake | binding affinity (human TNBC cells): High binding affinity | fluorescence in the implanted tumors [8]: intense fluorescence | fluorescence uptake of LDLLDL-Cy7 ([9]; 3 hrs, 5 and 10 μM/mL, FIG. 4): no fluorescence uptake | fluorescence uptake ([9]; peptide 5 uMol/uL, 4 hrs, control without FPR expression): not observed | fluorescence in the implanted tumors [10]: intense fluorescence | uptake of LDLLDL-Cy7 (MCF-7 cells [11]): weak uptake | uptake of LDLLDL-Cy7 (HCC1500 cells; 3 hrs, 5 and 10 μM/mL, FIG. 4): substantial uptake | cell associated fluorescence (HCC1500 cells; peptide 5 uMol/uL, 4 hrs, ER-positive luminal line): cell associated fluorescence | uptake of LDLLDL-Cy7 (MDA-MB-231 cells [12]): substantial uptake | uptake of LDLLDL-Cy7 (BT474 cells [13]; 3 hrs, 5 and 10 μM/mL, FIG. 4): weak uptake | cell associated fluorescence (BT474 cells [13]; peptide 5 uMol/uL, 4 hrs, Her2 line): cell associated fluorescence | fluorescence in the rest of the organs [14, 15]: no significant fluorescence | uptake in the tumors (extracted organs imaged) [14, 15]: strong uptake | fluorescence in the implanted tumors ([14]; tail vein injection, 6 hours after injection, FIG. 5): intense fluorescence
